Laboratory results as given in ChEMBL document CHEMBL4602605, “Fluoroquinolones structural and medicinal developments (2013-2018): Where are we now?” (Bioorg Med Chem, 2019).
In brackets after ≈: the same amount, converted by molar mass.

Assays:
Assay type in all cases: functional
[1] = tested on: Mycobacterium tuberculosis; test: Antimicrobial activity against Mycobacterium tuberculosis H37Rv ATCC 27294 incubated for 7 days by microplate Alamar blue assay; settings: H37Rv ATCC 27294, 168 h
[2] = tested on: Staphylococcus epidermidis; test: Antimicrobial activity against methicillin-susceptible Staphylococcus epidermidis ATCC 12228 incubated for 18 to 24 hrs by two-fold serial dilution method
Staphylococcus aureus [3] = test: Antimicrobial activity against methicillin-susceptible Staphylococcus aureus ATCC 29213 incubated for 18 to 24 hrs by two-fold serial dilution method
Staphylococcus aureus [4] = test: Antimicrobial activity against methicillin-resistant Staphylococcus aureus ATCC 33591 incubated for 18 to 24 hrs by two-fold serial dilution method
Enterococcus faecium = test: Antimicrobial activity against Enterococcus faecium ATCC 700221 incubated for 18 to 24 hrs by two-fold serial dilution method
Streptococcus pneumoniae = test: Antibacterial activity against Streptococcus pneumoniae ATCC 49619 incubated for 24 hrs; settings: ATCC 49619, 24 h
Staphylococcus aureus [5] = test: Antimicrobial activity against Staphylococcus aureus ATCC 29213 incubated for 24 hrs; settings: ATCC 29213, 24 h
Pseudomonas aeruginosa [6] = test: Antimicrobial activity against Pseudomonas aeruginosa ATCC 27853 incubated for 24 hrs; settings: ATCC 27853, 24 h
Escherichia coli [7] = test: Antimicrobial activity against Escherichia coli ATCC 25922 incubated for 24 hrs; settings: ATCC 25922, 24 h
Escherichia coli [8] = test: Antibacterial activity against Escherichia coli incubated for 18 hrs by CLSI-based broth microdilution method
Pseudomonas aeruginosa [9] = test: Antimicrobial activity against Pseudomonas aeruginosa ATCC 19429 incubated for 18 hrs by CLSI-based microbroth dilution method; settings: ATCC 19429, 18 h
Staphylococcus aureus [10] = test: Antimicrobial activity against Staphylococcus aureus ATCC 25923 incubated for 18 hrs by CLSI-based microbroth dilution method; settings: ATCC 25923, 18 h

In the case of COc1c(N2CCN(C/C(C)=N/NC(=O)c3ccc(F)cc3)CC2)c(F)cc2c(=O)c(C(=O)O)cn(C3CC3)c12, the MIC [1] is reported as 0.266 µM (≈ 0.147 µg/mL), the MIC [2] is reported as 0.125 µg/mL (≈ 0.226 µM) and the MIC (Staphylococcus aureus [3]) is reported as 0.125 µg/mL (≈ 0.226 µM). It also gave an MIC (Staphylococcus aureus [4]) of 0.125 µg/mL (≈ 0.226 µM) and an MIC (Enterococcus faecium) greater than 64 µg/mL.

In the case of CCn1cc(C(=O)O)c(=O)c2cc(F)c(N3CCN(C/C(=N/Nc4ccccc4)c4ccc(C)cc4)CC3)cc21, the MIC (Streptococcus pneumoniae) is reported as 100 µg/mL (≈ 185 µM), the MIC (Staphylococcus aureus [5]) is reported as 50 µg/mL (≈ 92.3 µM) and the MIC (Pseudomonas aeruginosa [6]) is reported as greater than 100 µg/mL. For the same compound, the MIC (Escherichia coli [7]) was 25 µg/mL (≈ 46.2 µM).

Work on CCn1cc(C(=O)O)c(=O)c2cc(F)c(N3CCN(C/C(=N/O)c4ccc(C)cc4)CC3)cc21 yielded an MIC (Streptococcus pneumoniae) of 100 µg/mL (≈ 214 µM), an MIC (Staphylococcus aureus [5]) of 50 µg/mL (≈ 107 µM) and an MIC (Pseudomonas aeruginosa [6]) of 100 µg/mL (≈ 214 µM). For the same compound, the MIC (Escherichia coli [7]) was 50 µg/mL (≈ 107 µM).

COc1ccc(/C(CN2CCN(c3cc4c(cc3F)c(=O)c(C(=O)O)cn4C3CC3)CC2)=N\O)cc1 showed an MIC (Streptococcus pneumoniae) of 50 µg/mL (≈ 101 µM), an MIC (Staphylococcus aureus [5]) of 6.25 µg/mL (≈ 12.6 µM) and an MIC (Pseudomonas aeruginosa [6]) of 100 µg/mL (≈ 202 µM). It also gave an MIC (Escherichia coli [7]) of 12.5 µg/mL (≈ 25.3 µM).

Compound CCn1cc(C(=O)O)c(=O)c2cc(F)c(N3CCN(C/C(=N/N)c4ccc(C)cc4)CC3)cc21 has an MIC (Streptococcus pneumoniae) of 25 µg/mL (≈ 53.7 µM), an MIC (Staphylococcus aureus [5]) of 12.5 µg/mL (≈ 26.9 µM) and an MIC (Pseudomonas aeruginosa [6]) of 100 µg/mL (≈ 215 µM). For the same compound, the MIC (Escherichia coli [7]) was 25 µg/mL (≈ 53.7 µM).

CCn1cc(C(=O)O)c(=O)c2cc(F)c(N3CCN(C/C(=N/NC(N)=O)c4ccc([N+](=O)[O-])cc4)CC3)cc21 gave an MIC (Streptococcus pneumoniae) of 12.5 µg/mL (≈ 23.2 µM), an MIC (Staphylococcus aureus [5]) of 6.25 µg/mL (≈ 11.6 µM) and an MIC (Pseudomonas aeruginosa [6]) of 50 µg/mL (≈ 92.7 µM). It also gave an MIC (Escherichia coli [7]) of 6.25 µg/mL (≈ 11.6 µM).

In the case of CCCCn1cc(C(=O)O)c(=O)c2cc(F)c(N3CCNCC3)cc21.Cl, the MIC (Escherichia coli [8]) is reported as 2 µg/mL, the MIC (Pseudomonas aeruginosa [9]) is reported as 16 µg/mL and the MIC (Staphylococcus aureus [10]) is reported as 16 µg/mL.

CCn1cc(C(=O)O)c(=O)c2cc(F)c(N3CCN(C/C(=N\Nc4ccccc4)c4ccc([N+](=O)[O-])cc4)CC3)cc21 was tested, and the MIC (Streptococcus pneumoniae) was 100 µg/mL (≈ 175 µM), the MIC (Staphylococcus aureus [5]) was 50 µg/mL (≈ 87.3 µM) and the MIC (Pseudomonas aeruginosa [6]) was greater than 100 µg/mL. It also gave an MIC (Escherichia coli [7]) of 50 µg/mL (≈ 87.3 µM).

In the case of COc1c(N2CCN(CCn3cncn3)CC2)c(F)cc2c(=O)c(C(=O)O)cn(C3CC3)c12, the MIC [1] is reported as 4.1 µM (≈ 1.87 µg/mL), the MIC [2] is reported as 4 µg/mL (≈ 8.76 µM) and the MIC (Staphylococcus aureus [3]) is reported as 4 µg/mL (≈ 8.76 µM). The MIC (Staphylococcus aureus [4]) was 4 µg/mL (≈ 8.76 µM) and the MIC (Enterococcus faecium) was greater than 128 µg/mL.

In the case of COc1ccc(Cn2cc(C(=O)O)c(=O)c3cc(F)c(N4CCNCC4)cc32)cc1.Cl, the MIC (Escherichia coli [8]) is reported as 128 µg/mL, the MIC (Pseudomonas aeruginosa [9]) is reported as greater than 128 µg/mL and the MIC (Staphylococcus aureus [10]) is reported as 64 µg/mL.

CCn1cc(C(=O)O)c(=O)c2cc(F)c(N3CCN(C/C(=N/OC)c4ccc(OC)cc4)CC3)cc21 was tested, and the MIC (Streptococcus pneumoniae) was 100 µg/mL (≈ 201 µM), the MIC (Staphylococcus aureus [5]) was 50 µg/mL (≈ 101 µM) and the MIC (Pseudomonas aeruginosa [6]) was 100 µg/mL (≈ 201 µM). It also gave an MIC (Escherichia coli [7]) of 50 µg/mL (≈ 101 µM).

Compound COc1c(N2CCN(C/C(C)=N/NC(=O)c3ccc(O)cc3)CC2)c(F)cc2c(=O)c(C(=O)O)cn(C3CC3)c12 has an MIC [1] of 0.21 µM (≈ 0.116 µg/mL), an MIC [2] of 0.06 µg/mL (≈ 0.109 µM) and an MIC (Staphylococcus aureus [3]) of 0.125 µg/mL (≈ 0.227 µM). It also gave an MIC (Staphylococcus aureus [4]) of 0.06 µg/mL (≈ 0.109 µM) and an MIC (Enterococcus faecium) of 64 µg/mL (≈ 116 µM).

Compound CCN(CC)c1cc2c(cc1F)c(=O)c(C(=O)O)cn2C1CC1 has an MIC (Escherichia coli [8]) of 1 µg/mL (≈ 3.14 µM), an MIC (Pseudomonas aeruginosa [9]) of 32 µg/mL (≈ 101 µM) and an MIC (Staphylococcus aureus [10]) of 0.5 µg/mL (≈ 1.57 µM).

COc1c(N2CCN(CCn3c([N+](=O)[O-])cnc3C)CC2)c(F)cc2c(=O)c(C(=O)O)cn(C3CC3)c12 showed an MIC [1] of 1.72 µM (≈ 0.885 µg/mL), an MIC [2] of 1 µg/mL (≈ 1.94 µM) and an MIC (Staphylococcus aureus [3]) of 1 µg/mL (≈ 1.94 µM). It also gave an MIC (Staphylococcus aureus [4]) of 1 µg/mL (≈ 1.94 µM) and an MIC (Enterococcus faecium) greater than 128 µg/mL.

Compound CCn1cc(C(=O)O)c(=O)c2cc(F)c(N3CCN(C/C(=N/OC)c4ccc([N+](=O)[O-])cc4)CC3)cc21 has an MIC (Streptococcus pneumoniae) of 100 µg/mL (≈ 195 µM), an MIC (Staphylococcus aureus [5]) of 25 µg/mL (≈ 48.9 µM) and an MIC (Pseudomonas aeruginosa [6]) of 100 µg/mL (≈ 195 µM). The MIC (Escherichia coli [7]) was 25 µg/mL (≈ 48.9 µM).

COc1c(N2CCN(CCCn3cc([N+](=O)[O-])nc3C)CC2)c(F)cc2c(=O)c(C(=O)O)cn(C3CC3)c12 gave an MIC [1] of 60.3 µM (≈ 31.9 µg/mL), an MIC [2] of 32 µg/mL (≈ 60.5 µM) and an MIC (Staphylococcus aureus [3]) of 32 µg/mL (≈ 60.5 µM). The MIC (Staphylococcus aureus [4]) was 32 µg/mL (≈ 60.5 µM) and the MIC (Enterococcus faecium) was greater than 64 µg/mL.

COc1c(N2CCN(C/C(C)=N/NC(=O)c3ccc([N+](=O)[O-])cc3)CC2)c(F)cc2c(=O)c(C(=O)O)cn(C3CC3)c12 was tested, and the MIC [1] was 0.294 µM (≈ 0.171 µg/mL), the MIC [2] was 0.125 µg/mL (≈ 0.215 µM) and the MIC (Staphylococcus aureus [3]) was 0.25 µg/mL (≈ 0.431 µM). It also gave an MIC (Staphylococcus aureus [4]) of 0.25 µg/mL (≈ 0.431 µM) and an MIC (Enterococcus faecium) of 128 µg/mL (≈ 220 µM).

For COc1ccc(/C(CN2CCN(c3cc4c(cc3F)c(=O)c(C(=O)O)cn4C3CC3)CC2)=N/NC(N)=O)cc1, the MIC (Streptococcus pneumoniae) was 12.5 µg/mL (≈ 23.3 µM), the MIC (Staphylococcus aureus [5]) was 6.25 µg/mL (≈ 11.6 µM) and the MIC (Pseudomonas aeruginosa [6]) was 50 µg/mL (≈ 93.2 µM). It also gave an MIC (Escherichia coli [7]) of 12.5 µg/mL (≈ 23.3 µM).

COc1ccc(/C(CN2CCN(c3cc4c(cc3F)c(=O)c(C(=O)O)cn4C3CC3)CC2)=N\N)cc1 was tested, and the MIC (Streptococcus pneumoniae) was 12.5 µg/mL (≈ 25.3 µM), the MIC (Staphylococcus aureus [5]) was 6.25 µg/mL (≈ 12.7 µM) and the MIC (Pseudomonas aeruginosa [6]) was 100 µg/mL (≈ 203 µM). The MIC (Escherichia coli [7]) was 12.5 µg/mL (≈ 25.3 µM).

Work on CCn1cc(C(=O)O)c(=O)c2cc(F)c(N3CCCCCC3)cc21 yielded an MIC (Escherichia coli [8]) of 16 µg/mL (≈ 48.1 µM), an MIC (Pseudomonas aeruginosa [9]) greater than 128 µg/mL and an MIC (Staphylococcus aureus [10]) of 0.5 µg/mL (≈ 1.5 µM).

With O=C(O)c1cn(C2CC2)c2cc(N3CCCCCC3)c(F)cc2c1=O the MIC (Escherichia coli [8]) was 2 µg/mL (≈ 5.81 µM), the MIC (Pseudomonas aeruginosa [9]) was greater than 128 µg/mL and the MIC (Staphylococcus aureus [10]) was 0.25 µg/mL (≈ 0.726 µM).

For COc1c(N2CCN(CCn3ccnn3)CC2)c(F)cc2c(=O)c(C(=O)O)cn(C3CC3)c12, the MIC [1] was 14.2 µM (≈ 6.48 µg/mL), the MIC [2] was 4 µg/mL (≈ 8.76 µM) and the MIC (Staphylococcus aureus [3]) was 4 µg/mL (≈ 8.76 µM). The MIC (Staphylococcus aureus [4]) was 4 µg/mL (≈ 8.76 µM) and the MIC (Enterococcus faecium) was greater than 128 µg/mL.

With Cl.O=C(O)c1cn(CCO)c2cc(N3CCNCC3)c(F)cc2c1=O the MIC (Escherichia coli [8]) was 4 µg/mL, the MIC (Pseudomonas aeruginosa [9]) was 64 µg/mL and the MIC (Staphylococcus aureus [10]) was 64 µg/mL.

Compound Cl.Cn1cc(C(=O)O)c(=O)c2cc(F)c(N3CCNCC3)cc21 has an MIC (Escherichia coli [8]) of 0.25 µg/mL, an MIC (Pseudomonas aeruginosa [9]) of 2 µg/mL and an MIC (Staphylococcus aureus [10]) of 8 µg/mL.

In the case of CCn1cc(C(=O)O)c(=O)c2cc(F)c(N3CCN(C/C(=N/NC(N)=O)c4ccccc4)CC3)cc21, the MIC (Streptococcus pneumoniae) is reported as 100 µg/mL (≈ 202 µM), the MIC (Staphylococcus aureus [5]) is reported as 12.5 µg/mL (≈ 25.3 µM) and the MIC (Pseudomonas aeruginosa [6]) is reported as 100 µg/mL (≈ 202 µM). It also gave an MIC (Escherichia coli [7]) of 25 µg/mL (≈ 50.6 µM).

CCn1cc(C(=O)O)c(=O)c2cc(F)c(N3CCN(C/C(=N\O)c4ccccc4)CC3)cc21 gave an MIC (Streptococcus pneumoniae) of 100 µg/mL (≈ 221 µM), an MIC (Staphylococcus aureus [5]) of 50 µg/mL (≈ 111 µM) and an MIC (Pseudomonas aeruginosa [6]) of 100 µg/mL (≈ 221 µM). It also gave an MIC (Escherichia coli [7]) of 50 µg/mL (≈ 111 µM).
